Laboratory results taken from ChEMBL document CHEMBL1130241, “Design, synthesis, and biochemical evaluation of phosphonate and phosphonamidate analogs of glutathionylspermidine as inhibitors of glutathionylspermidine synthetase/amidase from Escherichia coli” (J Med Chem, 1997).

Assays:
Escherichia coli [1] = assay: Inhibition of Glutathionylspermidine amidase at 1 mM compound concentration
[2] = biological target: T1, Glutathionylspermidine synthase (Crithidia fasciculata, UniProt P90518); assay: Inhibition of Glutathionylspermidine synthetase. Values from different publications.; parameters: species or system Escherichia coli
T1 sequence (P90518 whole entry): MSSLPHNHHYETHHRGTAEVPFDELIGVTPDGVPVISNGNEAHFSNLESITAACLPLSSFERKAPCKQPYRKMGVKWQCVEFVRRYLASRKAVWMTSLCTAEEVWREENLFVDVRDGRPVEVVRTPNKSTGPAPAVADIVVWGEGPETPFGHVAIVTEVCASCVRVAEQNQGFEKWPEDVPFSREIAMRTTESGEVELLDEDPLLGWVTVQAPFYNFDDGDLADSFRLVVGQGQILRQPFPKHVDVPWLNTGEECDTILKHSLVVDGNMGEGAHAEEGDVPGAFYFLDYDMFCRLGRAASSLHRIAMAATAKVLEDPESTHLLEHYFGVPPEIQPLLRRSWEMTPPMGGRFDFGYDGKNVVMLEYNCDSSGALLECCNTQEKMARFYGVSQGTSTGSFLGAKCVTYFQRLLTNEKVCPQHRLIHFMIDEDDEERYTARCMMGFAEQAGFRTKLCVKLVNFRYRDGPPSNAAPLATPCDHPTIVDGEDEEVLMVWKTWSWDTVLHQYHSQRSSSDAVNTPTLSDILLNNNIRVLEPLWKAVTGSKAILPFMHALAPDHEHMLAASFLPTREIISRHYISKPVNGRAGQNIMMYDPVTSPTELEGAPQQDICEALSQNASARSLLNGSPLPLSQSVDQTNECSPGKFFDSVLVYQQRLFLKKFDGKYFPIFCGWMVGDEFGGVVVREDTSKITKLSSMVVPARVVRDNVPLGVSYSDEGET

Escherichia coli [3] = assay: Inhibition of glutathionylspermidine amidase at 1 mM; not detectable
[4] = biological target: Glutathionylspermidine synthetase/amidase (Escherichia coli) (UniProt P0AES0); assay: Inhibition of Glutathionylspermidine synthetase
[5] = biological target: Glutathionylspermidine synthetase/amidase (Escherichia coli) (UniProt P0AES0); assay: Percentage of inhibition of Glutathionylspermidine synthetase at 1 mM concentration
[6] = biological target: Glutathionylspermidine synthetase/amidase (Escherichia coli) (UniProt P0AES0); assay: Percentage of inhibition of Glutathionylspermidine synthetase at 7.3 mM concentration

Chain of Glutathionylspermidine synthetase/amidase (Escherichia coli) (P0AES0 whole entry, looked up): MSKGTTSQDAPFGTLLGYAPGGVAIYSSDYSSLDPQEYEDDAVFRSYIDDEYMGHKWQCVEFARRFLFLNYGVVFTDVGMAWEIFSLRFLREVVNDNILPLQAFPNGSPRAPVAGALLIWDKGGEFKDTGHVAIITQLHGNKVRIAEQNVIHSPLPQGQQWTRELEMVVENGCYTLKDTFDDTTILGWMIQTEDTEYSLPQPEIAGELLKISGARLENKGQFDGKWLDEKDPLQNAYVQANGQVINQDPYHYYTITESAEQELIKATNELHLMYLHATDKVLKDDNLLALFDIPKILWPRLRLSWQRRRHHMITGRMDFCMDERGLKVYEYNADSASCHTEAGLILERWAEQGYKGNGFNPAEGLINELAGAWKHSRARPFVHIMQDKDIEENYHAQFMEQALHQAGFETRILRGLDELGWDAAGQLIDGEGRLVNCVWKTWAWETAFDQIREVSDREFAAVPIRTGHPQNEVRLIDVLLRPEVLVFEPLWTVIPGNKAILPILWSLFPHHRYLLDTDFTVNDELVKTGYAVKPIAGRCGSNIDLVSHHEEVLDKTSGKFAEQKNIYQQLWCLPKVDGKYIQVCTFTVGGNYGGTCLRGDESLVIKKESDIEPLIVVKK

For `COP(=O)(CNC(=O)[C@H](C)NC(=O)CC[C@H](N)C(=O)O)NCCCNCCCCN` (some centres not stated), the inhibition (Escherichia coli [1]) was 3.4% and the Ki [2] was 24 µM.

`C[C@H](NC(=O)CC[C@H](N)C(=O)O)C(=O)NCP(=O)(O)OCCCNCCCCN` was tested, and the inhibition (Escherichia coli [3]) was “not detectable” and the Ki [4] was 6 µM.

Molecule `CCCCNP(=O)(CNC(=O)[C@H](C)NC(=O)CC[C@H](N)C(=O)O)OC` (some centres not stated) has an inhibition (Escherichia coli [1]) of 1.8%, an inhibition [5] of 5.7% and an inhibition [6] of 31.3%.
